# Results reported in patent US10189887B2, “Polypeptides and uses thereof for reducing CD95-mediated cell motility” (INSERM (INSTITUT NATIONAL DE LA SANTÉ ET DE LA RECHERCHE …, priority 2014, dated 2019).
# Experiments:
# [1] = tested on: apoptotic signaling pathway; assay: CD95 apoptotic signaling pathway; format: cell-based; settings: TAT-CID treatment
# [2] = tested on: CD95-mediated Ca^2+ response; assay: Calcium response to cl-CD95L in activated PBL; format: cell-based, human; settings: activated PBL pre-incubated 1 hr, 10 μM peptide, 100 ng/ml cl-CD95L
# Protocol: Cells were loaded with Fura2-AM (1 μM) at resting temperature for 30 min in Hank's Balanced Salt Solution (HBSS). After washing with HBSS, the cells were incubated for 15 min in the absence of Fura2-AM to complete de-esterification of the dye. Cells were placed in a thermostated chamber (37° C.) of an inverted epifluorescence microscope (Olympus IX70) equipped with a ×40, UApo/340-1.15 W water-immersion objective (Olympus), and fluorescence micrograph images were captured at 510 nm and at 12-bit resolution by a fast-scan camera (CoolSNAP fx Monochrome, Photometrics). To minimize UV light exposure, 4×4 binning function was used. Fura2-AM was alternately excited at 340 and 380 nm, and ratios of the resulting images (excitations at 340 and 380 nm and emission filter at 520 nm) were produced at constant intervals (5 s or 10 s according to the stimulus). […] Fluorescent images were pseudocolored using the IMD display mode in MetaFluor and assembled without further manipulation in Photoshop (Adobe). Raw data were acquired with MetaFluor and graphed in Origin (OriginLab). [Ca^2+]i was calculated using the following equation: [Ca^2+]i=Kd(R−Rmin)/(R−Rmax)×Sf2/Sf1, where Kd is the Fura2-AM dissociation constant at the two excitation wavelengths (F340/F380); Rmin is the fluorescence ratio in the presence of minimal calcium, obtained by chelating Ca^2+ with 10 mM EGTA; Rmax is the fluorescence ratio in the presence of excess calcium, obtained by treating cells with 1 μM ionomycin; Sf2 is the fluorescence of the Ca^2+-free form; and Sf1 is the fluorescence of the Ca^2+-bound form of Fura2-AM at excitation wavelengths of 380 and 340 nm, respectively. In some experiments cells were placed in a Ca^2+-free medium consisting of the HBSS described above in which CaCl2 was omitted and 100 μM EGTA was added in order to chelate residual Ca^2+ ions. This medium was added to the cells just before recording to avoid leak of the intracellular calcium stores.
# All cells were purchased from ATCC (Molsheim Cedex, France). T leukemic cell lines CEM, H9 and Jurkat were cultured in RPMI supplemented with 8% heat-inactivated FCS (v/v) and 2 mM L-glutamine at 37° C. in a 5% CO2 incubator. CEM-IRC cell expressing a low amount of plasma membrane CD95 was described in (Beneteau et al., 2007; Beneteau et al., 2008). […]
# T cells were loaded with Fura-PE3-AM (1 μM) at room temperature for 30 min in Hank's Balanced Salt Solution (HBSS). […] Cells were placed in the temperature controlled chamber (37° C.) of an inverted epifluorescence microscope (Olympus IX70) equipped with an ×40 UApo/340-1.15 W water-immersion objective (Olympus), and fluorescence micrograph images were captured at 510 nm and 12-bit resolution by a fast-scan camera (CoolSNAP fx Monochrome, Photometrics). […]
# [3] = tested on: Akt serine 473 (PI3K signaling pathway); assay: Akt phosphorylation in PBLs exposed to cl-CD95L; format: cell-based, human; settings: peptide pre-incubation
# Protocol: Cells were lyzed for 30 minutes at 4° C. in lysis buffer (25 mM HEPES pH 7.4, 1% v/v Triton X-100, 150 mM NaCl, 2 mM EGTA supplemented with a mix of protease inhibitors (Sigma-Aldrich)). Protein concentration was determined by the bicinchoninic acid method (PIERCE, Rockford, Ill., USA) according to the manufacturer's protocol. Proteins were separated on a 12% SDS-PAGE and transferred to a nitrocellulose membrane (GE Healthcare, Buckinghamshire, England). The membrane was blocked 15 minutes with TBST (50 mM Tris, 160 mM NaCl, 0.05% v/v Tween 20, pH 7.8) containing 5% w/v dried skimmed milk (TBSTM). Primary antibody was incubated overnight at 4° C. in TBSTM. The membrane was intensively washed (TBST) and then the peroxydase-labeled anti-rabbit or anti-mouse (SouthernBiotech, Birmingham, Ala., US) was added for 45 minutes. The proteins were visualized with the enhanced chemiluminescence substrate kit (ECL, GE Healthcare).
substance,measurement,setting,value
TAT-CID: cell penetrating peptide linking the 36-amino acid-stretch of CID (CD95 residues 175 to 210) to the HIV-TAT sequence; SEQ ID NO: 6 (RKKRRQRRRKRKEVQKTCRKHRKENQGSHESPTLNPETVAINLSD; TAT-CID),execution of the apoptotic signaling pathway,[1],did not affect the execution of the apoptotic signaling pathway
same,calcium response to cl-CD95L,[2],abrogated the CD95-mediated Ca^2+ response
same,calcium response to cl-CD95L,[2]; listed as TAT CID 175-210,greatly reduced the calcium response
same,Akt phosphorylation at serine 473,[3],inhibited Akt phosphorylation at its serine 473
